Measured values reported in patent publication US10308644B2, “Heterocyclic compounds as immunomodulators” (Incyte Corporation, priority 2016, dated 2019).

These compounds were tested against PD-1/PD-L1 (Homo sapiens (Human), UniProt Q9NZQ7) (assay: PD-1/PD-L1 Homogeneous Time-Resolved Fluorescence (HTRF) Binding Assay). Conditions: recombinant human PD-1 (3 nM) and PD-L1 (10 nM), 25° C., PBS pH 7.4.
Method: Example A. PD-1/PD-L1 Homogeneous Time-Resolved Fluorescence (HTRF) Binding Assay
The assays were conducted in a standard black 384-well polystyrene plate with a final volume of 20 μL. Inhibitors were first serially diluted in DMSO and then added to the plate wells before the addition of other reaction components. The final concentration of DMSO in the assay was 1%. The assays were carried out at 25° C. in the PBS buffer (pH 7.4) with 0.05% Tween-20 and 0.1% BSA. Recombinant human PD-L1 protein (19-238) with a His-tag at the C-terminus was purchased from AcroBiosystems (PD1-H5229). Recombinant human PD-1 protein (25-167) with Fc tag at the C-terminus was also purchased from AcroBiosystems (PD1-H5257). PD-L1 and PD-1 proteins were diluted in the assay buffer and 10 μL was added to the plate well. Plates were centrifuged and proteins were preincubated with inhibitors for 40 minutes. The incubation was followed by the addition of 10 μL of HTRF detection buffer supplemented with Europium cryptate-labeled anti-human IgG (PerkinElmer-AD0212) specific for Fc and anti-His antibody conjugated to SureLight®-Allophycocyanin (APC, PerkinElmer-AD0059H). After centrifugation, the plate was incubated at 25° C. for 60 min. before reading on a PHERAstar FS plate reader (665 nm/620 nm ratio). Final concentrations in the assay were—3 nM PD1, 10 nM PD-L1, 1 nM europium anti-human IgG and 20 nM anti-His-Allophycocyanin. IC50 determination was performed by fitting the curve of percent control activity versus the log of the inhibitor concentration using the GraphPad Prism 5.0 software.

Chain of PD-1/PD-L1 (Q9NZQ7 19-238): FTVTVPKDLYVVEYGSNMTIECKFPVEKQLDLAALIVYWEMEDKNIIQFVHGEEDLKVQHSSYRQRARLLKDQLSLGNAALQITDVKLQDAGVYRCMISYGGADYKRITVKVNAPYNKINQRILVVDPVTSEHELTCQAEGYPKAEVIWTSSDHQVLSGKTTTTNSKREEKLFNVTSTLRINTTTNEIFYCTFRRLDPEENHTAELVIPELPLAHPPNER

`Cc1c(Nc2nccc3cc(CN4CC[C@@H](O)C4)cnc23)cccc1-c1cccc(-c2nc3cc(CN[C@H]4CC[C@H](C(=O)O)C4)cc(C#N)c3o2)c1C` [Example 182, (1S,3S)-3-((7-cyano-2-(3′-(3-(((R)-3-hydroxypyrrolidin-1-yl)methyl)-1,7-naphthyridin-8-ylamino)-2,2′-dimethylbiphenyl-3-yl)benzo [d]oxazol-5-yl)methylamino)cyclopentane carboxylic acid] and `Cc1c(Nc2nccc3cc(CN4CC(O)C4)cnc23)cccc1-c1cccc(-c2nc3cc(CN4CC[C@@H](C(=O)O)C4)cc(C#N)c3o2)c1C` [Example 136, (R)-1-((7-cyano-2-(3′-(3-((3-hydroxyazetidin-1-yl)methyl)-1,7-naphthyridin-8-ylamino)-2,2′-dimethylbiphenyl-3-yl)benzo[d]oxazol-5-yl)methyl)pyrrolidine-3-carboxylic acid] cannot be ordered by IC50: no more than 10 nM for the first, no more than 10 nM for the second.

`Cc1c(-c2nc3c(o2)CN(C(=O)CN2CCN(C)CC2)C3)cccc1-c1cccc(-c2nc3cc(CN4CC[C@@](C)(C(=O)O)C4)cc(C#N)c3o2)c1C` [Example 254, (R)-1-((7-cyano-2-(2,2′-dimethyl-3′-(5-(2-(4-methylpiperazin-1-yl)acetyl)-5,6-dihydro-4H-pyrrolo[3,4-d]oxazol-2-yl)-[1,1′-biphenyl]-3-yl)benzo[d]oxazol-5-yl)methyl)-3-methylpyrrolidine-3-carboxylic acid] and `Cc1c(-c2nc3c(o2)CN(C(=O)CN2CC[C@@H](O)C2)C3)cccc1-c1cccc(-c2nc3cc(CN4CC[C@@](C)(C(=O)O)C4)cc(C#N)c3o2)c1C` [Example 247, (R)-1-((7-cyano-2-(3′-(5-(2-((R)-3-hydroxypyrrolidin-1-yl)acetyl)-5,6-dihydro-4H-pyrrolo[3,4-d]oxazol-2-yl)-2,2′-dimethyl-[1,1′-biphenyl]-3-yl)-benzo[d]oxazol-5-yl)methyl)-3-methylpyrrolidine-3-carboxylic acid] cannot be ordered by IC50: no more than 10 nM for the first, no more than 10 nM for the second.

`Cc1c(-c2nc3cc(CN4CCCC[C@H]4C(=O)O)cc(Cl)c3o2)cccc1-c1cccc(NC(=O)c2nc3c(s2)CN(C)CC3)c1Cl` [Example 8, (S)-1-((7-chloro-2-(2′-chloro-2-methyl-3′-(5-methyl-4,5,6,7-tetrahydrothiazolo[5,4-c]pyridine-2-carboxamido)-[1,1′-biphenyl]-3-yl)benzo[d]oxazol-5-yl)methyl)piperidine-2-carboxylic acid] and `Cc1c(-c2nc3cc(CN4CCC(C(=O)O)CC4)cc(C#N)c3o2)cccc1-c1cccc(NC(=O)c2nc3c(n2C)CCNC3)c1Cl` [Example 154, 1-((2-(2′-chloro-2-methyl-3′-(1-methyl-4,5,6,7-tetrahydro-1H-imidazo[4,5-c]pyridine-2-carboxamido)biphenyl-3-yl)-7-cyanobenzo[d]oxazol-5-yl)methyl)piperidine-4-carboxylic acid] cannot be ordered by IC50: no more than 10 nM for the first, no more than 10 nM for the second.

`Cc1c(COc2cc(OCc3cncc(C#N)c3)c(CNCCO)cc2Cl)cccc1-c1cccc(-c2nc3cc(CN4CC[C@@H](C(=O)O)C4)cc(Cl)c3o2)c1C` [Example 150, (R)-1-((7-chloro-2-(3′-((2-chloro-5-((5-cyanopyridin-3-yl)methoxy)-4-(((2-hydroxyethyl)amino)methyl)phenoxy)methyl)-2,2′-dimethyl-[1,1′-biphenyl]-3-yl)benzo[d]oxazol-5-yl)methyl)pyrrolidine-3-carboxylic acid] and `Cc1c(Nc2nccc3cc(CN4CC[C@H](O)C4)cnc23)cccc1-c1cccc(-c2nc3cc(CN4CC[C@H](C(=O)O)C4)cc(Cl)c3o2)c1C` [Example 17, (S)-1-((7-chloro-2-(3′-(3-(((S)-3-hydroxypyrrolidin-1-yl)methyl)-1,7-naphthyridin-8-ylamino)-2,2′-dimethylbiphenyl-3-yl)benzo[d]oxazol-5-yl)methyl)pyrrolidine-3-carboxylic acid] cannot be ordered by IC50: 10 to 100 nM for the first, no more than 10 nM for the second.

`Cc1c(Nc2ncnc3cc(CN4CC[C@@H](O)C4)cnc23)cccc1-c1cccc(-c2nc3cc(CN4CCC[C@H](C(=O)O)C4)cc(C#N)c3o2)c1C` [Example 206, (S)-1-((7-cyano-2-(3′-(7-(((R)-3-hydroxypyrrolidin-1-yl)methyl)pyrido [3,2-d]pyrimidin-4-ylamino)-2,2′-dimethylbiphenyl-3-yl)benzo[d]oxazol-5-yl)methyl)piperidine-3-carboxylic acid] and `Cc1c(Nc2nccc3cc(CN4CCCC4)cnc23)cccc1-c1cccc(-c2nc3cc(CN4CC[C@@H](C(=O)O)C4)cc(C#N)c3o2)c1C` [Example 134, (R)-1-((7-cyano-2-(2,2′-dimethyl-3′-(3-(pyrrolidin-1-ylmethyl)-1,7-naphthyridin-8-ylamino)biphenyl-3-yl)benzo[d]oxazol-5-yl)methyl)pyrrolidine-3-carboxylic acid] cannot be ordered by IC50: no more than 10 nM for the first, no more than 10 nM for the second.

`Cc1c(-c2nc3cc(CN4CC[C@@H](O)C4)cc(C#N)c3o2)cccc1-c1cccc(NC(=O)c2nc3c(n2C)CCN(C2CC(C)(C(=O)O)C2)C3)c1Cl` (stereo partly drawn) [Example 263, (R)-3-(2-(2-chloro-3′-(7-cyano-5-((3-hydroxypyrrolidin-1-yl)-methyl)benzo[d]oxazol-2-yl)-2′-methylbiphenyl-3-ylcarbamoyl)-1-methyl-6,7-dihydro-1H-imidazo[4,5-c]pyridin-5(4H)-yl)-1-methylcyclobutanecarboxylic acid] and `Cc1c(-c2nc3cc(CN4CC[C@@H](O)C4)cc(C#N)c3o2)cccc1-c1cccc(NC(=O)c2nc3c(n2C)CCN(CC2CCC(C)(C(=O)O)CC2)C3)c1Cl` (single isomer, unassigned; peak 1) [Example 268] cannot be ordered by IC50: no more than 10 nM for the first, no more than 10 nM for the second.

`Cc1c(-c2nc3c(o2)CN(C(=O)CCN(C)C)C3)cccc1-c1cccc(-c2nc3cc(CN4CC[C@@H](C(=O)O)C4)cc(C#N)c3o2)c1C` [Example 125, (R)-1-((7-cyano-2-(3′-(5-(3-(dimethylamino)propanoyl)-5,6-dihydro-4H-pyrrolo[3,4-d]oxazol-2-yl)-2,2′-dimethyl-[1,1′-biphenyl]-3-yl)benzo[d]oxazol-5-yl)methyl)pyrrolidine-3-carboxylic acid] and `Cc1c(-c2nc3cc(CN4CC[C@H](C(=O)O)C4)cc(C#N)c3o2)cccc1-c1cccc(NC(=O)c2nc3c(n2C)CCN(C)C3)c1F` [Example 51, (S)-1-((7-cyano-2-(3′-(1,5-dimethyl-4,5,6,7-tetrahydro-1H-imidazo[4,5-c]pyridine-2-carboxamido)-2′-fluoro-2-methylbiphenyl-3-yl)benzo[d]oxazol-5-yl)methyl)pyrrolidine-3-carboxylic acid] cannot be ordered by IC50: no more than 10 nM for the first, no more than 10 nM for the second.

`Cc1c(Nc2nccc3c(CN4CC[C@H](O)C4)ccnc23)cccc1-c1cccc(-c2nc3cc(CN4CC[C@H](C(=O)O)C4)cc(C#N)c3o2)c1C` [Example 144, (S)-1-((7-cyano-2-(3′-((4-(((S)-3-hydroxypyrrolidin-1-yl)methyl)-1,7-naphthyridin-8-yl)amino)-2,2′-dimethyl-[1,1′-biphenyl]-3-yl)benzo[d]oxazol-5-yl)methyl)pyrrolidine-3-carboxylic acid] and `Cc1c(Nc2nccc3cc(CN4CC[C@@](C)(O)C4)cnc23)cccc1-c1cccc(-c2nc3cc(CN4CC[C@@H](C(=O)O)C4)cc(C#N)c3o2)c1C` [Example 137, (R)-1-((7-cyano-2-(3′-(3-(((R)-3-hydroxy-3-methylpyrrolidin-1-yl)methyl)-1,7-naphthyridin-8-ylamino)-2,2′-dimethylbiphenyl-3-yl)benzo[d]oxazol-5-yl)methyl)pyrrolidine-3-carboxylic acid] cannot be ordered by IC50: no more than 10 nM for the first, no more than 10 nM for the second.

`Cc1c(-c2nc3cc(CN4CCCC[C@H]4C(=O)O)c(OCC#N)cc3o2)cccc1-c1cccc(-c2nc3cc(CN4CCCC[C@H]4C(=O)O)c(OCC#N)cc3o2)c1C` [Example 7, (2S,2′S)-1,1′-(((2,2′-dimethyl-[1,1′-biphenyl]-3,3′-diyl)bis(6-(cyanomethoxy)benzo[d]oxazole-2,5-diyl))bis(methylene))bis(piperidine-2-carboxylic acid)] and `Cc1c(Nc2nccc3cc(CNC[C@@H](C)O)cnc23)cccc1-c1cccc(-c2nc3cc(CN4CCC(C(=O)O)CC4)cc(C#N)c3o2)c1C` [Example 203, (R)-1-((7-cyano-2-(3′-(3-((2-hydroxypropylamino)methyl)-1,7-naphthyridin-8-ylamino)-2,2′-dimethylbiphenyl-3-yl)benzo[d]oxazol-5-yl)methyl)piperidine-4-carboxylic acid] cannot be ordered by IC50: no more than 10 nM for the first, no more than 10 nM for the second.

`Cc1c(-c2nc3cc(CN4CC[C@@H](O)C4)cc(C#N)c3o2)cccc1-c1cccc(NC(=O)c2nc3c(n2C)CCN(CC24CCC(C(=O)O)(CC2)C4)C3)c1Cl` [Example 267, (R)-4-((2-(2-chloro-3′-(7-cyano-5-((3-hydroxypyrrolidin-1-yl)methyl)benzo[d]oxazol-2-yl)-2′-methylbiphenyl-3-ylcarbamoyl)-1-methyl-6,7-dihydro-1H-imidazo[4,5-c]pyridin-5(4H)-yl)methyl)bicyclo[2.2.1]heptane-1-carboxylic acid] showed an IC50 of no more than 10 nM.
